In patent US20130204033A1, “ANTIPROLIFERATIVE COMPOUNDS, CONJUGATES THEREOF, METHODS THEREFOR, AND USES THEREOF” (Medarex, Inc., priority 2009, published 2013):
pEC50: −log10 of the molar value. Like-named read-outs stand apart in the source and are kept apart here.

Experiments:
Format in all cases: cell-based, human
Hep3B = assay: 3H thymidine proliferation assay, Hep3B
Description: (§1) This example generally describes the procedures used to assay the antiproliferative activity of compounds of this invention or their conjugates. Human tumor cell lines were obtained from the American Type Culture Collection (ATCC), P.O. Box 1549, Manassas, Va. 20108, USA, and cultured according to instruction from the ATCC. Cells were seeded at 1.0×10^3 or 1.0×10^4 cells/well in 96-well plates for 3 h for ATP assays or ^3H thymidine assays, respectively. 1:3 serial dilutions of free (unconjugated) compounds or their conjugates were added to the wells. Plates were allowed to incubate for 24 to 72 h. The ^3H thymidine plates were pulsed with 1.0 μCi of ^3H-thymidine per well for the last 24 hours of the total incubation period, harvested, and read on a Top Count Scintillation Counter (Packard Instruments, Meriden, Conn.). ATP levels in the ATP plates were measured using the […]-GLO® Luminescent Cell Viability kit following the manufacturer's manual and read on a GLOMAX® 20/20 luminometer (both from Promega, Madison, Wis., USA). The EC50 values—the concentration at which an agent inhibits or reduces cell proliferation by 50% —were determined using PRISM™ software, version 4.0 (GraphPad Software, La Jolla, Calif., USA).
(§2) Using the ^3H thymidine or the ATP luminescence assay, or both, the activities of compounds of this invention were assayed against the following cancer cell lines: HCT-15 (colorectal cancer, multi-drug resistant (MDR)); Hep3B (liver cancer); LNCaP (prostate cancer, androgen receptor positive (AR^+)); MDA-MB-231 (breast cancer, estrogen receptor, progesterone receptor, and Her2 negative (triple negative)); A2058 (melanoma); U-87 MG (glioblastoma); NCI-H460 (NSCLC); A549 (NSCLC); HPAC (pancreatic cancer, primary); PC3 (prostate cancer, AR); BT474 (breast cancer, Her2 highly positive (Her2hi)); SKOV3 (ovarian cancer, Her2hi); 786-O (renal cancer); UO-31 (renal cancer, MDR); NCI-H740 (SCLC); DMS53 (SCLC); SK-BR3 (breast cancer, Her2hi); ZR-75 (breast cancer, estrogen receptor positive); OVCAR3 (ovarian cancer); HL-60 (APL); OVCAR8/Adr (ovarian cancer, MDR); CEM-Cl (ALL); Nomo-1 (AML); RPMI-8226 (MM)); Raji (lymphoma); SW-480 (colorectal cancer, metastatic); SW-620 (colorectal cancer); and H226 (lung cancer). (Not all compounds were assayed against all cell lines.)
(§3) Table 2 provides the data for proliferation assays using the ^3H thymidine method, with an incubation period of 72 h.

ZR-75 = assay: ATP luminescence proliferation assay, ZR-75
Description: as §1, §2
(§4) Table 3 provides the data for the ATP luminescence proliferation assays, with an incubation period of 48, 72, or 96 h, as noted.

RPMI-8226 = assay: ATP luminescence proliferation assay, RPMI-8226
Description: as §1, §2, §4

OVCAR3 [1] = assay: 3H thymidine proliferation assay, OVCAR3
Description: as §1, §2, §3

LNCaP = assay: ATP luminescence proliferation assay, LNCaP
Description: as §1, §2, §4

SK-BR3 = assay: ATP luminescence proliferation assay, SK-BR3
Description: as §1, §2, §4

OVCAR3 [2] = assay: ATP luminescence proliferation assay, OVCAR3
Outline: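 ATP luminescence read-out after 48, 72 or 96 h exposure to 1:3 serially diluted unconjugated compounds or conjugates; 1.0×10^3 cells/well plated 3 h before dosing. EC50 = 50% reduction of proliferation.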

MDA-MB-231 [3] = assay: 3H thymidine proliferation assay, MDA-MB-231
Description: as §1, §2, §3

HL-60 = assay: ATP luminescence proliferation assay, HL-60
Outline: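 Read-out: luminescent ATP cell viability after 48, 72 or 96 h incubation, as noted, with 1:3 serial dilutions of unconjugated compounds or their conjugates. Plating was 1.0×10^3 cells/well, 3 h before dosing. EC50 = concentration giving 50% inhibition of proliferation.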

A549 = assay: ATP luminescence proliferation assay, A549
Description: as §1, §2, §4

NCI-H740 = assay: ATP luminescence proliferation assay, NCI-H740; details: H740, 72 h incubation
Description: as §1, with “Calif., USA). […]” for “Calif., USA).”
as §4

MDA-MB-231 [4] = assay: ATP luminescence proliferation assay, MDA-MB-231
Description: as §1, §2, §4

[5] = 3H thymidine method, 72 h incubation, read-out: EC50, Hep3B
[6] = 3H thymidine method, 72 h incubation, read-out: EC50, OVCAR3
[7] = ATP luminescence, 72 h incubation, read-out: EC50 LNCaP (72 h)
[8] = 3H thymidine method, 72 h incubation, read-out: EC50, MDA-MB-231
[9] = ATP luminescence, HL-60, 72 h incubation, read-out: EC50 HL-60 (72 h)
[10] = Homo sapiens, Hep3B, read-out: EC50, Hep3B, 3H thymidine method, 72 h incubation
[11] = Homo sapiens, ZR75, 48 h, read-out: EC50 ZR-75 (48 h), ATP luminescence, ZR-75, 48 h incubation
[12] = Homo sapiens, RPMI-8226, 72 h, read-out: EC50 RPMI-8226 (72 h), ATP luminescence, RPMI-8226, 72 h incubation
[13] = Homo sapiens, OVCAR-3, read-out: EC50, OVCAR3, 3H thymidine method, 72 h incubation
[14] = Homo sapiens, 72 h, read-out: EC50 LNCaP (72 h), ATP luminescence, LNCaP, 72 h incubation
[15] = Homo sapiens, SK-BR-3, 48 h, read-out: EC50 SK-BR3 (48 h), ATP luminescence, SK-BR3, 48 h incubation
[16] = Homo sapiens, OVCAR-3, 48 h, read-out: EC50 OVCAR3 (48 h), ATP luminescence, OVCAR3, 48 h incubation
[17] = Homo sapiens, MDA-MB-231, read-out: EC50, MDA-MB-231, 3H thymidine method, 72 h incubation
[18] = Homo sapiens, HL-60, 48 h, read-out: EC50 HL-60 (48 h), ATP luminescence, HL-60, 48 h incubation
[19] = Homo sapiens, A549, 48 h, read-out: EC50 A549 (48 h), ATP luminescence, A549, 48 h incubation
[20] = Homo sapiens, MDA-MB-231, 72 h, read-out: EC50 MDA-MB-231 (72 h), ATP luminescence, MDA-MB-231, 72 h incubation

SMILES | pEC50 (Hep3B; [5]) | pEC50 (OVCAR3 [1]; [6]) | pEC50 (LNCaP; [7]) | pEC50 (MDA-MB-231 [3]; [8]) | pEC50 (HL-60; [9]) | pEC50 (Hep3B; [10]) | pEC50 (ZR-75; [11]) | pEC50 (RPMI-8226; [12]) | pEC50 (OVCAR3 [1]; [13]) | pEC50 (LNCaP; [14]) | pEC50 (SK-BR3; [15]) | pEC50 (OVCAR3 [2]; [16]) | pEC50 (MDA-MB-231 [3]; [17]) | pEC50 (HL-60; [18]) | pEC50 (A549; [19]) | pEC50 (MDA-MB-231 [4]; [20]) | further results
CC[C@H](C)[C@H](NC(=O)[C@H]1CCCCN1C)C(=O)N(COC(=O)CC(C)C)[C@H](C[C@@H](OC(C)=O)c1nc(C(=O)N[C@@H](Cc2ccccc2)C[C@H](C)C(=O)O)cs1)C(C)C [Tub D, tubulysin D, reference compound] | 10.66 | 10.29 | 10.03 | 10.04 | 11.02 |  |  |  |  |  |  |  |  |  |  |  | pEC50 (ZR-75; ATP luminescence, ZR-75, 72 h incubation, read-out: EC50 ZR-75 (72 h)): 10.47; pEC50 (RPMI-8226; ATP luminescence, RPMI-8226, 72 h incubation, read-out: EC50 RPMI-8226 (72 h)): 11.29; pEC50 (SK-BR3; ATP luminescence, SK-BR3, 72 h incubation, read-out: EC50 SK-BR3 (72 h)): 10.60; pEC50 (OVCAR3 [2]; ATP luminescence, OVCAR3, 48 h incubation, read-out: EC50 OVCAR3 (48 h)): 10.07; pEC50 (A549; ATP luminescence, A549, 48 h incubation, read-out: EC50 A549 (48 h)): 10.70; pEC50 (NCI-H740): 10.66; pEC50 (MDA-MB-231 [4]; ATP luminescence, MDA-MB-231, 72 h incubation, read-out: EC50 MDA-MB-231 (72 h)): 10.33
CC[C@H](C)[C@H](NC(=O)[C@H]1CCCCN1C)C(=O)N(COC(=O)CC(C)C)[C@H](C[C@@H](OC(C)=O)c1nc(C(=O)N[C@@H](Cc2ccc(N)cc2)CC(C)C(=O)O)cs1)C(C)C (some centres unmarked) [Compound 54] |  |  |  |  |  | 9.52 | 8.02 | 8.80 | 8.41 | 7.96 | 8.21 | < 7.00 | 8.80 | 8.60 | 8.52 | 8.25 | 
CC[C@H](C)[C@H](NC(=O)[C@H]1CCCCN1C)C(=O)N(C)[C@H](C[C@@H](OC)c1nc(C(=O)N[C@H](CCC(=O)OC)Cc2ccccc2)cs1)C(C)C [Compound 26] |  |  |  |  |  | 7.74 | 6.68 |  | 8.49 | 6.39 | 6.60 |  | 7.82 |  |  |  | pEC50 (RPMI-8226; Homo sapiens, RPMI-8226, 48 h, read-out: EC50 RPMI-8226 (48 h), ATP luminescence, RPMI-8226, 48 h incubation): 7.35; pEC50 (OVCAR3 [2]; Homo sapiens, OVCAR-3, 72 h, read-out: EC50 OVCAR3 (72 h), ATP luminescence, OVCAR3, 72 h incubation): 7.31; pEC50 (HL-60; Homo sapiens, HL-60, 72 h, read-out: EC50 HL-60 (72 h), ATP luminescence, HL-60, 72 h incubation): 7.57; pEC50 (MDA-MB-231 [4]; Homo sapiens, MDA-MB-231, 48 h, read-out: EC50 MDA-MB-231 (48 h), ATP luminescence, MDA-MB-231, 48 h incubation): 6.92
CC[C@H](C)[C@H](NC(=O)[C@H]1CCCCN1C)C(=O)N(COC)[C@H](C[C@@H](OC)c1nc(C(=O)N[C@@H](Cc2ccccc2)C(=O)OC)cs1)C(C)C [Compound 29c] | 8.52 | 8.44 | 6.59 | 8.32 | 8.07 |  |  |  |  |  |  |  |  |  |  |  | pEC50 (ZR-75; ATP luminescence, ZR-75, 48 h incubation, read-out: EC50 ZR-75 (48 h)): 6.87; pEC50 (RPMI-8226; ATP luminescence, RPMI-8226, 48 h incubation, read-out: EC50 RPMI-8226 (48 h)): 7.15; pEC50 (SK-BR3; ATP luminescence, SK-BR3, 48 h incubation, read-out: EC50 SK-BR3 (48 h)): 6.56; pEC50 (OVCAR3 [2]; ATP luminescence, OVCAR3, 72 h incubation, read-out: EC50 OVCAR3 (72 h)): 7.00; pEC50 (MDA-MB-231 [4]; ATP luminescence, MDA-MB-231, 48 h incubation, read-out: EC50 MDA-MB-231 (48 h)): 7.28
CC[C@H](C)[C@H](NC(=O)[C@H]1CCCCN1C)C(=O)N(C)[C@H](C[C@@H](OC(C)=O)c1nc(C(=O)N[C@@H](Cc2ccc(N)cc2)CC(C)C(=O)O)cs1)C(C)C (some centres unmarked) [Compound 36] |  |  |  |  |  | 7.41 | < 6.52 | 7.21 | < 7.00 | < 6.52 | < 6.52 | < 6.52 | < 7.00 | 6.94 | 8.72 | 8.02 | 
COc1cccc2c1C(=O)c1c(O)c3c(c(O)c1C2=O)C[C@@](O)(C(=O)CO)C[C@@H]3O[C@H]1C[C@H](N)[C@H](O)[C@H](C)O1 [Dox, doxorubicin, reference compound] |  |  |  |  |  |  |  |  |  |  |  |  |  |  |  |  | pEC50 (Hep3B; Homo sapiens, Hep3B, 3H thymidine method, 72 h incubation, read-out: EC50, Hep3B): 7.36; pEC50 (ZR-75; Homo sapiens, ZR75, ATP luminescence, ZR-75, 72 h incubation, read-out: EC50 ZR-75 (72 h)): 6.63; pEC50 (RPMI-8226; Homo sapiens, ATP luminescence, RPMI-8226, 72 h incubation, read-out: EC50 RPMI-8226 (72 h)): 6.46; pEC50 (OVCAR3 [1]; Homo sapiens, OVCAR-3, 3H thymidine method, 72 h incubation, read-out: EC50, OVCAR3): 6.59; pEC50 (LNCaP; Homo sapiens, ATP luminescence, 72 h incubation, read-out: EC50 LNCaP (72 h)): 6.23; pEC50 (SK-BR3; Homo sapiens, SK-BR-3, ATP luminescence, SK-BR3, 72 h incubation, read-out: EC50 SK-BR3 (72 h)): 6.36; pEC50 (OVCAR3 [2]; Homo sapiens, OVCAR-3, ATP luminescence, OVCAR3, 48 h incubation, read-out: EC50 OVCAR3 (48 h)): 6.20; pEC50 (MDA-MB-231 [3]; Homo sapiens, MDA-MB-231, 3H thymidine method, 72 h incubation, read-out: EC50, MDA-MB-231): 6.88; pEC50 (HL-60; Homo sapiens, ATP luminescence, HL-60, 72 h incubation, read-out: EC50 HL-60 (72 h)): 6.83; pEC50 (A549; Homo sapiens, ATP luminescence, A549, 48 h incubation, read-out: EC50 A549 (48 h)): 6.83; pEC50 (MDA-MB-231 [4]; Homo sapiens, ATP luminescence, MDA-MB-231, 72 h incubation, read-out: EC50 MDA-MB-231 (72 h)): 6.29
